Experimental data from patent publication US12077503B2, “Substituted cyclic amides and their use as herbicides” (FMC CORPORATION, priority 2015, dated 2024).
Read-outs that look alike come from different tables or passages of the source.

Tests used:
Type in all cases: in vivo
Kochia (Kochia scoparia) [1] = assay: Test A preemergence; conditions: Bassia scoparia, pre-emergence, 240 h, preemergence, read-out: Kochia plant response rating; for pest or weed control at 125 g/ha: 125 g ai/ha, approx. 10 d; for pest or weed control at 500 g/ha: 500 g ai/ha
In short: (§1)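 Preemergence soil spray on seeded pots or post-emergence spray on 1–2 leaf plants, in loam–sand blend. Greenhouse ~10 d. Visual rating 0–100 against untreated plants.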

[2] = system: barnyardgrass (Echinochloa crus-galli); assay: Test A preemergence; conditions: Echinochloa crus-galli, pre-emergence, 240 h; for pest or weed control at 125 g/ha: 125 g ai/ha; for pest or weed control at 500 g/ha: 500 g ai/ha
In short: as §1

[3] = system: giant foxtail (Setaria faberii); assay: Test A preemergence; conditions: Setaria faberi, pre-emergence, 240 h; for pest or weed control at 125 g/ha: 125 g ai/ha; for pest or weed control at 500 g/ha: 500 g ai/ha
In short: as §1

[4] = system: pigweed (Amaranthus retroflexus); assay: Test A preemergence; conditions: Amaranthus retroflexus, pre-emergence, 240 h, preemergence, read-out: Pigweed plant response rating; for pest or weed control at 125 g/ha: 125 g ai/ha, approx. 10 d; for pest or weed control at 500 g/ha: 500 g ai/ha
[5] = system: ragweed (common ragweed, Ambrosia elatior); assay: Test A preemergence; conditions: Ambrosia artemisiifolia, pre-emergence, 240 h, preemergence, read-out: Ragweed plant response rating; for pest or weed control at 125 g/ha: 125 g ai/ha, approx. 10 d; for pest or weed control at 500 g/ha: 500 g ai/ha
In short: as §1

[6] = system: ryegrass, Italian (Italian ryegrass, Lolium multiflorum); assay: Test A preemergence; conditions: Lolium multiflorum, pre-emergence, 240 h, preemergence, read-out: Ryegrass, Italian plant response rating; for pest or weed control at 125 g/ha: 125 g ai/ha, approx. 10 d; for pest or weed control at 500 g/ha: 500 g ai/ha
In short: as §1

[7] = system: Galium (catchweed bedstraw, Galium aparine); assay: Test A postemergence; conditions: Galium, post-emergence, 240 h, postemergence, read-out: Galium plant response rating; for pest or weed control at 125 g/ha: 125 g ai/ha, visual injury on 0 to 100 scale (0 no effect, 100 complete control), approx. 10 d; for pest or weed control at 500 g/ha: 500 g ai/ha, 0 to 100 scale, 0 is no effect, 100 is complete control
In short: as §1

Kochia (Kochia scoparia) [8] = assay: Test A postemergence; conditions: Bassia scoparia, post-emergence, 240 h, postemergence, read-out: Kochia plant response rating; for pest or weed control at 125 g/ha: 125 g ai/ha, visual injury on 0 to 100 scale (0 no effect, 100 complete control), approx. 10 d; for pest or weed control at 500 g/ha: 500 g ai/ha, 0 to 100 scale, 0 is no effect, 100 is complete control
In short: as §1

[9] = system: barnyardgrass (Echinochloa crus-galli); assay: Test A postemergence; conditions: Echinochloa crus-galli, post-emergence, 240 h, postemergence, read-out: Barnyardgrass plant response rating; for pest or weed control at 125 g/ha: 125 g ai/ha, visual injury on 0 to 100 scale (0 no effect, 100 complete control), approx. 10 d; for pest or weed control at 500 g/ha: 500 g ai/ha, 0 to 100 scale, 0 is no effect, 100 is complete control
In short: as §1

[10] = system: blackgrass (Alopecurus myosuroides); assay: Test A postemergence; conditions: Alopecurus myosuroides, post-emergence, 240 h, postemergence, read-out: Blackgrass plant response rating; for pest or weed control at 125 g/ha: 125 g ai/ha, visual injury on 0 to 100 scale (0 no effect, 100 complete control), approx. 10 d; for pest or weed control at 500 g/ha: 500 g ai/ha, 0 to 100 scale, 0 is no effect, 100 is complete control
In short: as §1

corn (Zea mays) = assay: Test A postemergence; conditions: Zea mays, post-emergence, 240 h, postemergence, read-out: Corn plant response rating; for plant injury at 125 g/ha: 125 g ai/ha, visual injury on 0 to 100 scale (0 no effect, 100 complete control), approx. 10 d; for plant injury at 500 g/ha: 500 g ai/ha, 0 to 100 scale, 0 is no effect, 100 is complete control
In short: as §1

[11] = system: pigweed (Amaranthus retroflexus); assay: Test A postemergence; conditions: Amaranthus retroflexus, post-emergence, 240 h, postemergence; for pest or weed control at 125 g/ha: 125 g ai/ha; for pest or weed control at 500 g/ha: 500 g ai/ha, 0 to 100 scale, 0 is no effect, 100 is complete control
In short: as §1

[12] = system: ragweed (common ragweed, Ambrosia elatior); assay: Test A postemergence; conditions: Ambrosia artemisiifolia, post-emergence, 240 h, postemergence; for pest or weed control at 125 g/ha: 125 g ai/ha; for pest or weed control at 500 g/ha: 500 g ai/ha, 0 to 100 scale, 0 is no effect, 100 is complete control
In short: as §1

[13] = system: ryegrass, Italian (Italian ryegrass, Lolium multiflorum); assay: Test A postemergence; conditions: Lolium multiflorum, post-emergence, 240 h, postemergence; for pest or weed control at 125 g/ha: 125 g ai/ha; for pest or weed control at 500 g/ha: 500 g ai/ha, 0 to 100 scale, 0 is no effect, 100 is complete control
In short: as §1

[14] = system: wheat (Triticum aestivum); assay: Test A postemergence; conditions: Triticum aestivum, post-emergence, 240 h, postemergence; for plant injury at 125 g/ha: 125 g ai/ha; for plant injury at 500 g/ha: 500 g ai/ha, 0 to 100 scale, 0 is no effect, 100 is complete control
In short: as §1

[15] = 0 to 100 scale where 0 is no effect and 100 is complete control
[16] = visual injury rating about 10 d after treatment, 0 to 100 scale (0 no effect, 100 complete control)
[17] = read-out: Pigweed plant response rating
[18] = read-out: Ragweed plant response rating
[19] = read-out: Ryegrass, Italian plant response rating
[20] = read-out: Wheat plant response rating

SMILES	pest or weed control at 125 g/ha (Kochia (Kochia scoparia) [1]; [15]) [%]	pest or weed control at 125 g/ha [4, 15] [%]	pest or weed control at 125 g/ha [5, 15] [%]	pest or weed control at 125 g/ha [6, 15] [%]	pest or weed control at 125 g/ha [7] [%]	pest or weed control at 500 g/ha [7] [%]	pest or weed control at 125 g/ha (Kochia (Kochia scoparia) [8]) [%]	pest or weed control at 500 g/ha (Kochia (Kochia scoparia) [8]) [%]	pest or weed control at 125 g/ha [9] [%]	pest or weed control at 500 g/ha [9] [%]	pest or weed control at 125 g/ha [10] [%]	pest or weed control at 500 g/ha [10] [%]	plant injury at 125 g/ha (corn (Zea mays)) [%]	plant injury at 500 g/ha (corn (Zea mays)) [%]	pest or weed control at 500 g/ha [11, 17] [%]	pest or weed control at 500 g/ha [12, 18] [%]	pest or weed control at 500 g/ha [13, 19] [%]	plant injury at 500 g/ha [14, 20] [%]	also measured
Cc1ccc([C@H]2CN(C)C(=O)[C@]2(O)C(=O)Nc2cccc(F)c2F)cc1 (racemic) [Compound 1059]	0	0	0	0	0	0	0	0	40	90	0	0	0	20	0	0	20	0	pest or weed control at 500 g/ha (Kochia (Kochia scoparia) [1]; [16]): 20%; pest or weed control at 125 g/ha ([2]; Preemergence, visual injury rating after approximately 10 d, read-out: Barnyardgrass plant response rating (0 to 100 scale, 0 is no effect, 100 is complete control)): 70%; pest or weed control at 500 g/ha ([2]; preemergence, visual injury rating about 10 d after treatment, 0 to 100 scale (0 no effect, 100 complete control), read-out: Barnyardgrass plant response rating): 90%; pest or weed control at 125 g/ha ([3]; Preemergence, visual injury rating after approximately 10 d, read-out: Foxtail, Giant plant response rating (0 to 100 scale, 0 is no effect, 100 is complete control)): 70%; pest or weed control at 500 g/ha ([3]; preemergence, visual injury rating about 10 d after treatment, 0 to 100 scale (0 no effect, 100 complete control), read-out: Foxtail, Giant plant response rating): 80%; pest or weed control at 500 g/ha [4, 16]: 0%; pest or weed control at 500 g/ha [5, 16]: 30%; pest or weed control at 500 g/ha [6, 16]: 0%; pest or weed control at 125 g/ha ([11]; visual injury on 0 to 100 scale (0 no effect, 100 complete control), approx. 10 d, read-out: Pigweed plant response rating): 0%; pest or weed control at 125 g/ha ([12]; visual injury on 0 to 100 scale (0 no effect, 100 complete control), approx. 10 d, read-out: Ragweed plant response rating): 0%; pest or weed control at 125 g/ha ([13]; visual injury on 0 to 100 scale (0 no effect, 100 complete control), approx. 10 d, read-out: Ryegrass, Italian plant response rating): 0%; plant injury at 125 g/ha ([14]; visual injury on 0 to 100 scale (0 no effect, 100 complete control), approx. 10 d, read-out: Wheat plant response rating): 0%
CN1C[C@H](c2ccc(C(F)(F)F)cc2)[C@](F)(C(=O)Nc2cccc(F)c2F)C1=O (racemic) [Compound 1152]	0	60	0	0	0	20	0	0	0	0	0	0	0	0	0	0	0	0	pest or weed control at 500 g/ha (Kochia (Kochia scoparia) [1]; [15]): 0%; pest or weed control at 125 g/ha ([2]; preemergence, 0 to 100 scale where 0 is no effect and 100 is complete control, approx. 10 d, read-out: Barnyardgrass plant response rating): 20%; pest or weed control at 500 g/ha ([2]; preemergence, 0 to 100 scale where 0 is no effect and 100 is complete control, read-out: Barnyardgrass plant response rating): 90%; pest or weed control at 125 g/ha ([3]; preemergence, 0 to 100 scale where 0 is no effect and 100 is complete control, approx. 10 d, read-out: Foxtail, Giant plant response rating): 70%; pest or weed control at 500 g/ha ([3]; preemergence, 0 to 100 scale where 0 is no effect and 100 is complete control, read-out: Foxtail, Giant plant response rating): 90%; pest or weed control at 500 g/ha [4, 15]: 80%; pest or weed control at 500 g/ha [5, 15]: 0%; pest or weed control at 500 g/ha [6, 15]: 20%; pest or weed control at 125 g/ha ([11]; visual injury vs untreated controls after approx. 10 d, 0 = no effect, 100 = complete control, read-out: Pigweed plant response rating (0 to 100 scale)): 0%; pest or weed control at 125 g/ha ([12]; visual injury vs untreated controls after approx. 10 d, 0 = no effect, 100 = complete control, read-out: Ragweed plant response rating (0 to 100 scale)): 0%; pest or weed control at 125 g/ha ([13]; visual injury vs untreated controls after approx. 10 d, 0 = no effect, 100 = complete control, read-out: Ryegrass, Italian plant response rating (0 to 100 scale)): 0%; plant injury at 125 g/ha ([14]; visual injury vs untreated controls after approx. 10 d, 0 = no effect, 100 = complete control, read-out: Wheat plant response rating (0 to 100 scale)): 0%
